Data as given in ChEMBL document CHEMBL1134218, “Sialidase inhibitors related to zanamivir. Further SAR studies of 4-amino-4H-pyran-2-carboxylic acid-6-propylamides” (Bioorg Med Chem Lett, 2001).
In brackets after ≈: the same amount, converted by molar mass.

Assays:
Influenza B virus = assay: Concentration required for reduction of plaque against influenza B; format: functional, organism-based, unidentified influenza virus
Influenza A virus = assay: Concentration required for reduction of plaque against influenza A; format: functional, organism-based, unidentified influenza virus
[1] = Influenza B virus, read-out: IC50
[2] = Influenza A virus, read-out: IC50

SMILES | IC50 (Influenza B virus; [1]) [ng/mL] | IC50 (Influenza A virus; [2]) [ng/mL] | IC50 (Influenza B virus) [ng/mL] | IC50 (Influenza A virus) [ng/mL]
CCCN(CCc1ccccc1)C(=O)[C@@H]1OC(C(=O)O)=C[C@H](O)[C@H]1NC(C)=O | > 100000 | 5 (≈ 12.8 nM) |  | 
CCCN(CCC)C(=O)[C@@H]1OC(C(=O)O)=C[C@H](N)[C@H]1NC(C)=O | 700 (≈ 2140 nM) | 2 (≈ 6.11 nM) |  | 
CCCN(CCC)C(=O)[C@@H]1OC(C(=O)O)=C[C@H](N)[C@H]1NC(=O)CC | 3000 (≈ 8790 nM) | 0.2 (≈ 0.586 nM) |  | 
CCCN(CCc1ccccc1)C(=O)[C@@H]1OC(C(=O)O)=C[C@H](N)[C@H]1NC(=O)C(F)(F)F | 56 (≈ 126 nM) | 4 (≈ 9.02 nM) |  | 
CCCN(CCC)C(=O)[C@@H]1OC(C(=O)O)=C[C@H](N)[C@H]1NC(=O)C(F)(F)F | 300 (≈ 787 nM) | 0.01 (≈ 0.0262 nM) |  | 
CCCN(CCc1ccccc1)C(=O)[C@@H]1OC(C(=O)O)=C[C@H](N)[C@H]1NC(C)=O | 280 (≈ 719 nM) | 30 (≈ 77 nM) | 300 (≈ 770 nM) | 30 (≈ 77 nM)
CC(=O)N[C@H]1[C@H]([C@H](O)[C@H](O)CO)OC(C(=O)O)=C[C@@H]1NC(=N)N [ZANAMIVIR] | 2 (≈ 6.02 nM) | 5 (≈ 15 nM) |  | 
